In brackets after ≈: the same amount, converted by molar mass.
Key:
fACC2 = fACC2 (UniProt Q00955); experiment: In vitro ACC2 inhibition assay (ADP-Glo), fungal ACC2; format: biochemical
Description: An exemplary procedure for the in vitro ACC inhibition assay, which can be used to determine the inhibitory action of compounds of the invention toward either human (hACC2) or fungal (fACC2) ACC2, follows. The ADP-Glo™ Kinase Assay kit from Promega was used. The ADP-Glo™ Kinase Assay is a luminescent ADP detection assay to measure enzymatic activity by quantifying the amount of ADP produced during an enzyme reaction. The assay is performed in two steps; first, after the enzyme reaction, an equal volume of ADP-Glo™ Reagent is added to terminate the reaction and deplete the remaining ATP. Second, the Kinase Detection Reagent is added to simultaneously convert ADP to ATP and allow the newly synthesized ATP to be measured using a luciferase/luciferin reaction. Luminescence can be correlated to ADP concentrations by using an ATP-to-ADP conversion curve. The detailed procedure is as follows. 50 μL of the compound being tested (600 μM in DMSO) was added to a 384-well dilution plate. The compound was diluted 1:3 in succession in DMSO for each row for 11 wells. 0.5 μL ACC2 working solution was added to 384-well white Optiplate assay plate. 0.5 μL diluted compound solution in each column from step 2 was added to assay plate, each row containing 2 replicates. For the last 2 rows, 0.5 μL negative control (DMSO) was added in one row and 0.5 μL positive control (compound I-97) in the other. The plates were incubated at room temperature for 15 minutes. 5 μL substrate working solution was added to each well to initiate reaction. Final ACC2 reaction concentrations consist of: 5 nM ACC2, 20 μM ATP, 20 μM acetyl-CoA, 12 mM NaHCO3, 0.01% Brij35, 2 mM DTT, 5% DMSO, test compound concentrations: 30 μM, 10 μM, 3.33 μM, 1.11 μM, 0.37 μM, 0.123 μM, 0.0411 μM, 0.0137 μM, 0.00457 μM, 0.00152 μM, and 0.00051 μM. Plates were incubated at room temperature for 60 minutes. 10 μL ADP glo reagent was added. Plates were incubated at room temperature for 40 minutes. 20 μL kinase detection reagent was added. Plates were incubated at room temperature for 40 minutes, and then read on a Perkin Elmer EnVision 2104 plate reader for luminescence as Relative Light Units (RLU).
Data for each concentration, as well as the positive and negative controls, were averaged, and the standard deviation calculated. Percent inhibition was calculated by the formula: 100×(average negative control−compound)/(average negative control−average positive control). The IC50 for each compound was calculated by fitting the data with a non-linear regression equation: Y=Bottom+(Top−Bottom)/(1+10^((Log IC50−X)*HillSlope)), where X is the log of compound concentration and Y is percent inhibition.

C. albicans ATCC 90028 = experiment: Anti-Fungal (Candida) Activity Assay, broth microtiter MIC; format: cell-based; conditions: ATCC90028, 48 h, 3 replicates, MIC read at 48 h
Description: (§1) Compounds of the present invention were evaluated in an Anti-Fungal Activity Assay. An exemplary procedure for the assay, which measures the susceptibility of various Candida species to anti-fungal compounds, follows. Compounds to be tested (including fluconazole and amphotericin B) were dissolved in DMSO to obtain a solution having a concentration of 1 mg/mL. These stock solutions were sterile filtered using a 0.22 um nylon syringe filter, then diluted in sterile water to achieve a final concentration of 128 μg/mL.
(§2) All species were grown from frozen stock by directly plating on to freshly prepared Sabouraud Dextrose agar (BD, Difco) and incubated overnight in ambient air at 35° C. for 24 h. A direct suspension was prepared in RPMI 1640+MOPS (Lonza, Biowhittaker) by taking individual colonies from the overnight cultures using sterile swabs soaked in sterile saline. The concentration of the suspension was determined using pre-determined standard curves. These suspensions were then diluted down to 5×10^3 CFU/mL to achieve a final concentration of 2.5×10^3 CFU/mL once added to the microtiter plate as per CLSI guidelines (M27-A3, Vol. 28 No. 14).
(§3) Broth microtiter MIC challenge plates were prepared following CLSI guidelines (M27-A3, Vol. 28 No. 14). The original CLSI guidelines focused on reading Candida MICs after 48 h of incubation. As reading after only 24 h offers a clear advantage of patient care, QC limits are being established for all drugs at 24 h. That being said there are no known interpretive breakpoints for amphotericin B at 24 h and the current fluconazole interpretive breakpoints are based on a 48 h reading. The MIC for the test compounds were recorded at 48 h. All MIC determinations were achieved by visually comparing the growth found in the antibiotic challenged wells to that of the growth control.

[1] = test system: C. parapsilosis ATCC 22019; experiment: as above; format: cell-based; conditions: Lodderomyces parapsilosis, ATCC22019, 48 h, 3 replicates, MIC read at 48 h
Description: as §1, §2, §3

C. krusei ATCC 6258 = experiment: as above; format: cell-based, Candida krusei; conditions: Pichia kudriavzevii, ATCC6258, 48 h, 3 replicates, MIC read at 48 h
Description: as §1, §2, §3

Chain of fACC2 (Q00955 whole entry): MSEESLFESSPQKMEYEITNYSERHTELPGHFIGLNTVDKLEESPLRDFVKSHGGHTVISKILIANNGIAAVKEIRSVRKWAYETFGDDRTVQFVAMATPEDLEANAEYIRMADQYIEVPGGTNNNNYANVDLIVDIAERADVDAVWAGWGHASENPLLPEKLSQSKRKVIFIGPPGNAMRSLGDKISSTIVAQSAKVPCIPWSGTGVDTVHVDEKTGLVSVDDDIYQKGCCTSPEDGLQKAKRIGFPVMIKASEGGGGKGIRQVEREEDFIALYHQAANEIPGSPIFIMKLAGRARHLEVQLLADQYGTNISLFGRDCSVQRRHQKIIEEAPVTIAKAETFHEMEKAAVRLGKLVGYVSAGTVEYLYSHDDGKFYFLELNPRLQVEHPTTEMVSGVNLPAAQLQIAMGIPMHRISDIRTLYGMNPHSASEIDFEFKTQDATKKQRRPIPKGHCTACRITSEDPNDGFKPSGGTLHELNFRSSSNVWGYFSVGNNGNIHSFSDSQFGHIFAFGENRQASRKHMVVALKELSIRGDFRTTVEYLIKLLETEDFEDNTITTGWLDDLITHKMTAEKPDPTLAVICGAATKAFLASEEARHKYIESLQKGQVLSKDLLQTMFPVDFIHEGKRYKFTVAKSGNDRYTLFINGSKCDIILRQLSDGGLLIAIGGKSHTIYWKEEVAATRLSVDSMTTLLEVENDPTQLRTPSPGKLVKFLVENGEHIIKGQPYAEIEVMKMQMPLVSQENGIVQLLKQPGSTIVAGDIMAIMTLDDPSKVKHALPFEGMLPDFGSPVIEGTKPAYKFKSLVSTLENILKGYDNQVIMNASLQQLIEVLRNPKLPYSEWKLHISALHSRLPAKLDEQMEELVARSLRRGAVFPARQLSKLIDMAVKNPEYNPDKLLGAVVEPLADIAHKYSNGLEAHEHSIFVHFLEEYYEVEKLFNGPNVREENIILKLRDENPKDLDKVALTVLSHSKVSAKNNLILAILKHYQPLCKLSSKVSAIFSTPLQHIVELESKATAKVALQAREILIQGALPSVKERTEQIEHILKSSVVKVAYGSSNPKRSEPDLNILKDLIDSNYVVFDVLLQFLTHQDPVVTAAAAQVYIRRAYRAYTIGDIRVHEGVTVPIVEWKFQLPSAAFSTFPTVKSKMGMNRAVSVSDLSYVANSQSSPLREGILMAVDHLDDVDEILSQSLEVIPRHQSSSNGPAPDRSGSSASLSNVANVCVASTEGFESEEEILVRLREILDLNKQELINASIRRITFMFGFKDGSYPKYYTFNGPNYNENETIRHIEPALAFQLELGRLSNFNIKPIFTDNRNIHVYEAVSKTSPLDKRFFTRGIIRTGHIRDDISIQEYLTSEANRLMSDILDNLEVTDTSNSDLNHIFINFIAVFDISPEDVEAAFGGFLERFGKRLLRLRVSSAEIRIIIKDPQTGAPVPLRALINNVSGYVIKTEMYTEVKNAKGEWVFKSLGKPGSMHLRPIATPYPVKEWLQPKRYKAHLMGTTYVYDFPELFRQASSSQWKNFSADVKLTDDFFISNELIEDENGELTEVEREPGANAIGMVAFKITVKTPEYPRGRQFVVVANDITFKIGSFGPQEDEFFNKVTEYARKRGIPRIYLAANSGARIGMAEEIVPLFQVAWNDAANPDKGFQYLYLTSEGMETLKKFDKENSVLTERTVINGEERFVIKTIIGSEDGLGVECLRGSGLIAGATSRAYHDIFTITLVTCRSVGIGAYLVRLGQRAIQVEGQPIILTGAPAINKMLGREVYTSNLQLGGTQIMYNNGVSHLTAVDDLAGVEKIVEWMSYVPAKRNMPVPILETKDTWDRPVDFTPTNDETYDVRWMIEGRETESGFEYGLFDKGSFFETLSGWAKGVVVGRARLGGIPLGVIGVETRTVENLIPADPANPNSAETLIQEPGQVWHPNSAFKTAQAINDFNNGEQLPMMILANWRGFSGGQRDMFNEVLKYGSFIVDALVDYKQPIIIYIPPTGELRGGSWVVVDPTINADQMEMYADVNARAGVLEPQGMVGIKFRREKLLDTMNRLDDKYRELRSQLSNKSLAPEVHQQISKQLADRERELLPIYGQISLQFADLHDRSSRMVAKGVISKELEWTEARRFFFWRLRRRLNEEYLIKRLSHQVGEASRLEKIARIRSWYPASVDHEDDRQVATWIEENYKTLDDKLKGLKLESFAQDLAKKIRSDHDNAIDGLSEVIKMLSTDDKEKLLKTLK

SMILES | IC50 (fACC2; Table 2a) [nM] | IC50 (fACC2; Table 2b (additional results)) [nM] | MIC (C. albicans ATCC 90028; Table 3a) [µg/mL] | MIC (C. albicans ATCC 90028; Table 3b (additional results)) [µg/mL] | MIC ([1]; Table 3a) [µg/mL] | MIC ([1]; Table 3b (additional results)) [µg/mL] | MIC (C. krusei ATCC 6258; Table 3a) [µg/mL] | MIC (C. krusei ATCC 6258; Table 3b (additional results)) [µg/mL]
CCOC(=O)c1sc2c(c1C)c(=O)n(C(C)(C)C(=O)NC(C)C)c(=O)n2C[C@H](OC1CCOCC1)c1ccccc1OC [Compound I-8, (R)-ethyl 3-(1-(isopropylamino)-2-methyl-1-oxopropan-2-yl)-1-(2-(2-methoxyphenyl)-2-((tetrahydro-2H-pyran-4-yl)oxy)ethyl)-5-methyl-2,4-dioxo-1,2,3,4-tetrahydrothieno[2,3-d]pyrimidine-6-carboxylate] | 0.6 to 3 | 0.3 to 3 | 1.1 to 2 (≈ 1.79 to 3.25 µM) | 1.1 to 2 (≈ 1.79 to 3.25 µM) | 1.1 to 2 (≈ 1.79 to 3.25 µM) | 2.1 to 4 (≈ 3.41 to 6.5 µM) | 0.25 to 1 (≈ 0.406 to 1.62 µM) | 2.1 to 4 (≈ 3.41 to 6.5 µM)
CCOC(=O)c1sc2c(c1C)c(=O)n([C@@H](C)C(N)=O)c(=O)n2C[C@H](OCCC#N)c1cc(F)ccc1OC [Compound I-25, ethyl 3-((S)-1-amino-1-oxopropan-2-yl)-1-((R)-2-(2-cyanoethoxy)-2-(5-fluoro-2-methoxyphenyl)ethyl)-5-methyl-2,4-dioxo-1,2,3,4-tetrahydrothieno[2,3-d]pyrimidine-6-carboxylate] | – | 0.3 to 3 | – | 2.1 to 4 (≈ 3.84 to 7.32 µM) | – | 2.1 to 4 (≈ 3.84 to 7.32 µM) | – | 1.1 to 2 (≈ 2.01 to 3.66 µM)
CCOC(=O)c1sc2c(c1C)c(=O)n(C(C)(C)C(=O)NC(C)C)c(=O)n2C[C@H](OCCC#N)c1ccccc1OC [Compound I-31, ethyl (R)-1-(2-(2-cyanoethoxy)-2-(2-methoxyphenyl)ethyl)-3-(1-(isopropylamino)-2-methyl-1-oxopropan-2-yl)-5-methyl-2,4-dioxo-1,2,3,4-tetrahydrothieno[2,3-d]pyrimidine-6-carboxylate] | – | 0.3 to 3 | – | 0.25 to 1 (≈ 0.428 to 1.71 µM) | – | 1.1 to 2 (≈ 1.88 to 3.42 µM) | – | 0.25 to 1 (≈ 0.428 to 1.71 µM)
CCOC(=O)c1sc2c(c1C)c(=O)n([C@H](C)C(N)=O)c(=O)n2C[C@H](OCCC#N)c1cc(F)ccc1OC [Compound I-26, ethyl 3-((R)-1-amino-1-oxopropan-2-yl)-1-((R)-2-(2-cyanoethoxy)-2-(5-fluoro-2-methoxyphenyl)ethyl)-5-methyl-2,4-dioxo-1,2,3,4-tetrahydrothieno[2,3-d]pyrimidine-6-carboxylate] | – | 0.3 to 3 | – | 2.1 to 4 (≈ 3.84 to 7.32 µM) | – | > 4.1 | – | 0.25 to 1 (≈ 0.457 to 1.83 µM)
CCNC(=O)C(C)(C)n1c(=O)c2c(C)c(C(=O)OCC)sc2n(C[C@H](OCCC#N)c2ccccc2OC)c1=O [Compound I-32, ethyl (R)-1-(2-(2-cyanoethoxy)-2-(2-methoxyphenyl)ethyl)-3-(1-(ethylamino)-2-methyl-1-oxopropan-2-yl)-5-methyl-2,4-dioxo-1,2,3,4-tetrahydrothieno[2,3-d]pyrimidine-6-carboxylate] | – | 0.3 to 3 | – | 2.1 to 4 (≈ 3.68 to 7.01 µM) | – | > 4.1 | – | 0.25 to 1 (≈ 0.438 to 1.75 µM)

Source: US11098055B2, “Ester ACC inhibitors and uses thereof” (Gilead Apollo, LLC, priority 2015, dated 2021)
